Marks after values point to notes of the source that are not given here. No end group written: not given here.
Assay: Example 4 stability of concentrated solutions: HPLC-UV Assay/RS (method 78917)
Type: physicochemical
Conditions: for HPLC-UV Assay / Related Substances Purity / Related Substances Total Impurities: 81.4 mg/mL solution
Experimental: The peptide formulation of SEQ ID NO: 1 dissolved in a saline solution with a pH of 5.0±0.1 was tested for stability under either −20° C. or 40° C. with 75% relative humidity (RH). […]

[1] = 15.3 mg/mL solution, 40° C. and 75% RH, 1 Month
[2] = 15.3 mg/mL solution, 40° C. and 75% RH, 2 Month
[3] = 15.3 mg/mL solution, 40° C. and 75% RH, 3 Month
[4] = 15.3 mg/mL solution, 40° C. and 75% RH, 6 Month
[5] = 15.3 mg/mL solution, −20° C., 0 Month
[6] = 15.3 mg/mL solution, −20° C., 1 Month
[7] = 15.3 mg/mL solution, −20° C., 2 Month
[8] = 15.3 mg/mL solution, −20° C., 3 Month
[9] = 15.3 mg/mL solution, −20° C., 6 Month
[10] = 15.3 mg/mL solution, −20° C., 9 Month
[11] = 36.7 mg/mL solution, 40° C. and 75% RH, 1 Month
[12] = 36.7 mg/mL solution, 40° C. and 75% RH, 2 Month
[13] = 36.7 mg/mL solution, 40° C. and 75% RH, 3 Month
[14] = 36.7 mg/mL solution, 40° C. and 75% RH, 6 Month
[15] = 36.7 mg/mL solution, −20° C., 0 Month
[16] = 36.7 mg/mL solution, −20° C., 1 Month
[17] = 36.7 mg/mL solution, −20° C., 2 Month
[18] = 36.7 mg/mL solution, −20° C., 3 Month
[19] = 36.7 mg/mL solution, −20° C., 6 Month
[20] = 36.7 mg/mL solution, −20° C., 9 Month
[21] = 72.4 mg/mL solution, 40° C. and 75% RH, 1 Month
[22] = 72.4 mg/mL solution, 40° C. and 75% RH, 2 Month
[23] = 72.4 mg/mL solution, 40° C. and 75% RH, 3 Month
[24] = 72.4 mg/mL solution, 40° C. and 75% RH, 6 Month
[25] = 72.4 mg/mL solution, −20° C., 0 Month
[26] = 72.4 mg/mL solution, −20° C., 1 Month
[27] = 72.4 mg/mL solution, −20° C., 2 Month
[28] = 72.4 mg/mL solution, −20° C., 3 Month
[29] = 72.4 mg/mL solution, −20° C., 6 Month
[30] = 72.4 mg/mL solution, −20° C., 9 Month

## RRWVRRVRRVWRRVVRVVRRWVRR-NH2 [SEQ ID NO: 1]
[1]
  HPLC-UV Assay/RS % Assay: 96.0%
  HPLC-UV Assay/RS % Purity: 99%
  HPLC-UV Assay/RS % Total Impurities: 1.0%
  RRT 1.02 Mean % Area: 1.0%
  RRT […] area (Inj-1): 0.97%
  RRT […] area (Inj-2): 0.95%
  SEQ ID NO: 1 % area (Inj-1): 99.03%
  SEQ ID NO: 1 % area (Inj-2): 99.05%
  SEQ ID NO: 1 Mean % Area: 99.0%
[2]
  HPLC-UV Assay/RS % Assay: 103.8%
  HPLC-UV Assay/RS % Purity: 99%
  HPLC-UV Assay/RS % Total Impurities: 1.4%
  HPLC-UV Assay/RS Impurities RRT/%, RRT 1.02: 1.02/1.0%
  HPLC-UV Assay/RS Impurities RRT/%, RRT 1.08: 1.08/0.2%
  HPLC-UV Assay/RS Impurities RRT/%, RRT 1.10: 1.10/0.2%
[3]
  HPLC-UV Assay/RS % Assay: 96.8%
  HPLC-UV Assay/RS % Purity: 99%
  HPLC-UV Assay/RS % Total Impurities: 1.3%
  HPLC-UV Assay/RS Impurities RRT/%, RRT 1.02: 1.02/1.1%
  HPLC-UV Assay/RS Impurities RRT/%, RRT 1.25: 1.25/0.2%
[4]
  % assay: 97.5%
  HPLC-UV Assay/RS % Purity: 98%
  HPLC-UV Assay/RS % Total Impurities: 2.5%
[5]
  HPLC-UV Assay/RS % Assay: 99.8%
  HPLC-UV Assay/RS % Purity: 99.0%
  HPLC-UV Assay/RS % Total Impurities: 1.0%
  RRT 1.02 Mean % Area: 1.0%
  RRT […] area (Inj-1): 1.05%
  RRT […] area (Inj-2): 1.03%
  SEQ ID NO: 1 % area (Inj-1): 98.95%
  SEQ ID NO: 1 % area (Inj-2): 98.97%
  SEQ ID NO: 1 Mean % Area: 99.0%
[6]
  HPLC-UV Assay/RS % Assay: 103.4%
  HPLC-UV Assay/RS % Purity: 99%
  HPLC-UV Assay/RS % Total Impurities: 0.9%
  RRT 1.02 Mean % Area: 0.9%
  RRT […] area (Inj-1): 0.88%
  RRT […] area (Inj-2): 0.87%
  SEQ ID NO: 1 % area (Inj-1): 99.12%
  SEQ ID NO: 1 % area (Inj-2): 99.13%
  SEQ ID NO: 1 Mean % Area: 99.1%
[7]
  HPLC-UV Assay/RS % Assay: 106.0%
  HPLC-UV Assay/RS % Purity: 99%
  HPLC-UV Assay/RS % Total Impurities: 0.9%
  HPLC-UV Assay/RS Impurities RRT/%, RRT 1.02: 1.02/0.9%
[8]
  HPLC-UV Assay/RS % Assay: 99.7%
  HPLC-UV Assay/RS % Purity: 99%
  HPLC-UV Assay/RS % Total Impurities: 0.9%
  HPLC-UV Assay/RS Impurities RRT/%, RRT 1.02: 1.02/0.9%
[9]
  HPLC-UV Assay/RS % Assay: 102.1%
  HPLC-UV Assay/RS % Purity: 99%
  HPLC-UV Assay/RS % Total Impurities: 0.9%
  HPLC-UV Assay/RS Impurities RRT/%, RRT 1.02: 1.02/0.9%
[10]
  HPLC-UV Assay/RS % Assay: 101.0%
  HPLC-UV Assay/RS % Purity: 100%
  HPLC-UV Assay/RS % Total Impurities: 0.3%
  HPLC-UV Assay/RS Impurities RRT/%, RRT 1.01: 1.01/0.3%
[11]
  % Purity: 99%
  % Total Impurities: 0.9%
  HPLC-UV % Assay: 97.5%
  RRT 1.02 impurity % area (Inj-1): 0.94 % area
  RRT 1.02 impurity % area (Inj-2): 0.91 % area
  RRT 1.02 impurity Mean % Area: 0.9 % Area
  SEQ ID NO: 1 peak % area (Inj-1): 99.06 % area
  SEQ ID NO: 1 peak % area (Inj-2): 99.09 % area
  SEQ ID NO: 1 peak Mean % Area: 99.1 % Area
[12]
  % Purity: 99%
  % Total Impurities: 1.2%
  HPLC-UV % Assay: 101.7%
[13]
  % Purity: 99%
  % Total Impurities: 1.5%
  HPLC-UV % Assay: 97.3%
[14]
  % Purity: 97%
  % Total Impurities: 3.0%
  HPLC-UV % Assay: 94.8%
[15]
  HPLC-UV Assay/RS % Assay: 97.9%
  HPLC-UV Assay/RS % Purity: 99.0%
  HPLC-UV Assay/RS % Total Impurities: 1.0%
  RRT 1.02 Mean % Area: 1.0%
  RRT […] area (Inj-1): 1.02%
  RRT […] area (Inj-2): 1.03%
  SEQ ID NO: 1 % area (Inj-1): 98.98%
  SEQ ID NO: 1 % area (Inj-2): 98.97%
  SEQ ID NO: 1 Mean % Area: 99.0%
[16]
  HPLC-UV Assay/RS % Assay: 98.6%
  HPLC-UV Assay/RS % Purity: 99%
  HPLC-UV Assay/RS % Total Impurities: 0.9%
  RRT 1.02 Mean % Area: 0.9%
  RRT […] area (Inj-1): 0.87%
  RRT […] area (Inj-2): 0.88%
  SEQ ID NO: 1 % area (Inj-1): 99.13%
  SEQ ID NO: 1 % area (Inj-2): 99.12%
  SEQ ID NO: 1 Mean % Area: 99.1%
[17]
  HPLC-UV Assay/RS % Assay: 103.2%
  HPLC-UV Assay/RS % Purity: 99%
  HPLC-UV Assay/RS % Total Impurities: 0.9%
  HPLC-UV Assay/RS Impurities RRT/%, RRT 1.02: 1.02/0.9%
[18]
  HPLC-UV Assay/RS % Assay: 101.7%
  HPLC-UV Assay/RS % Purity: 99%
  HPLC-UV Assay/RS % Total Impurities: 0.9%
  HPLC-UV Assay/RS Impurities RRT/%, RRT 1.02: 1.02/0.9%
[19]
  HPLC-UV Assay/RS % Assay: 99.8%
  HPLC-UV Assay/RS % Purity: 99%
  HPLC-UV Assay/RS % Total Impurities: 0.9%
  HPLC-UV Assay/RS Impurities RRT/%, RRT 1.02: 1.02/0.9%
[20]
  HPLC-UV Assay/RS % Assay: 96.9%
  HPLC-UV Assay/RS % Purity: 100%
  HPLC-UV Assay/RS % Total Impurities: 0.3%
  HPLC-UV Assay/RS Impurities RRT/%, RRT 1.01: 1.01/0.3%
[21]
  % Purity: 99%
  % Total Impurities: 1.1%
  HPLC-UV % Assay: 95.9%
  RRT 1.02 impurity % area (Inj-1): 0.92 % area
  RRT 1.02 impurity % area (Inj-2): 0.90 % area
  RRT 1.02 impurity Mean % Area: 0.9 % Area
  RRT 1.32 impurity % area (Inj-1): 0.17 % area
  RRT 1.32 impurity % area (Inj-2): 0.18 % area
  RRT 1.32 impurity Mean % Area: 0.2 % Area
  SEQ ID NO: 1 peak % area (Inj-1): 98.91 % area
  SEQ ID NO: 1 peak % area (Inj-2): 98.92 % area
  SEQ ID NO: 1 peak Mean % Area: 98.9 % Area
[22]
  % Purity: 99%
  % Total Impurities: 1.5%
  HPLC-UV % Assay: 98.4%
[23]
  % Purity: 98%
  % Total Impurities: 1.8%
  HPLC-UV % Assay: 90.5%
[24]
  % Purity: 96%
  % Total Impurities: 3.6%
  HPLC-UV % Assay: 87.0* %
[25]
  % Puritvy: 99.1%
  % Total Impurities: 1.0%
  HPLC-UV % Assay: 94.2%
  RRT 1.02 impurity % area (Inj-1): 0.97 % area
  RRT 1.02 impurity % area (Inj-2): 0.93 % area
  RRT 1.02 impurity Mean % Area: 1.0 % Area
  SEQ ID NO: 1 peak % area (Inj-1): 99.03 % area
  SEQ ID NO: 1 peak % area (Inj-2): 99.07 % area
  SEQ ID NO: 1 peak Mean % Area: 99.1 % Area
[26]
  % Puritvy: 99%
  HPLC-UV % Assay: 97.7%
  RRT 1.02 impurity % area (Inj-1): 0.88 % area
  RRT 1.02 impurity % area (Inj-2): 0.87 % area
  RRT 1.02 impurity Mean % Area: 0.9 % Area
  SEQ ID NO: 1 peak % area (Inj-1): 99.12 % area
  SEQ ID NO: 1 peak % area (Inj-2): 99.13 % area
  SEQ ID NO: 1 peak Mean % Area: 99.1 % Area
  Total % Impurities: 0.9%
[27]
  % Purity: 99%
  % Total Impurities: 0.9%
  HPLC-UV % Assay: 101.1%
[28]
  % Purity: 99%
  % Total Impurities: 1.0%
  HPLC-UV % Assay: 97.4%
[29]
  % Purity: 99%
  % Total Impurities: 0.9%
  HPLC-UV % Assay: 95.1%
[30]
  % Purity: 100%
  % Total Impurities: 0.5%
  HPLC-UV % Assay: 95.9%
40° C. and 75% RH, 1 Month
  HPLC-UV Assay: 102.5 % LC
  Related Substances Purity: 98%
  Related Substances Total Impurities: 1.7%
40° C. and 75% RH, 2 Month
  HPLC-UV Assay: 102.6 % LC
  Related Substances Purity: 98%
  Related Substances Total Impurities: 2.4%
40° C. and 75% RH, 3 Month
  HPLC-UV Assay: 92.0♦ % LC
  Related Substances Purity: 97%
  Related Substances Total Impurities: 2.6%
−20° C., 0 Month
  HPLC-UV Assay: 108.6 % LC
  Related Substances Purity: 99%
  Related Substances Total Impurities: 0.9%
−20° C., 1 Month
  HPLC-UV Assay: 103.8 % LC
  Related Substances Purity: 99%
  Related Substances Total Impurities: 1.0%
−20° C., 2 Month
  HPLC-UV Assay: 107.8 % LC
  Related Substances Purity: 99%
  Related Substances Total Impurities: 0.9%
−20° C., 3 Month
  HPLC-UV Assay: 104.7 % LC
  Related Substances Purity: 100%
  Related Substances Total Impurities: 0.3%

From US20230106943A1, “ENGINEERED ANTIMICROBIAL PEPTIDES AND USAGE THEREOF” (Peptilogics, Inc., priority 2021, published 2023)
